Assay results taken from US10266537B2, “3-acetylenyl-pyrazole-pyrimidine derivative, and preparation method therefor and uses thereof” (Si Chuan University, priority 2015, dated 2019).
Like-named read-outs stand apart in the source and are kept apart here.

What was measured:
c-Src(T341M) = c-Src(T341M) (Homo sapiens (Human), UniProt P12931, T341M); assay: Kinase inhibition assay (KinaseProfiler, 33P-ATP); type: biochemical; conditions: for IC50: c-Src(T341M), ATP at Km
Blk = Blk (Homo sapiens (Human), UniProt P51451); assay: Kinase inhibition assay (KinaseProfiler, 33P-ATP); type: biochemical; conditions: for IC50: Blk, ATP at Km; for remaining activity at 10 µM: Blk(h), read-out: The percentage of the remaining active protein
KDR = KDR (Homo sapiens (Human), UniProt P35968); assay: Kinase inhibition assay (KinaseProfiler, 33P-ATP); type: biochemical; conditions: for remaining activity at 10 µM: KDR(h), read-out: The percentage of the remaining active protein; for IC50: KDR, ATP at Km
FGFR1 = FGFR1 (Homo sapiens (Human), UniProt P11362); assay: Kinase inhibition assay (KinaseProfiler, 33P-ATP); type: biochemical; conditions: for remaining activity at 10 µM: FGFR1(h), read-out: The percentage of the remaining active protein
EphB2 = EphB2 (Homo sapiens (Human), UniProt P29323); assay: Kinase inhibition assay (KinaseProfiler, 33P-ATP); type: biochemical; conditions: for remaining activity at 10 µM: EphB2(h), read-out: The percentage of the remaining active protein; for IC50: EphB2, ATP at Km
DDR1 = DDR1 (Homo sapiens (Human), UniProt Q08345); assay: Kinase inhibition assay (KinaseProfiler, 33P-ATP); type: biochemical; conditions: for IC50: DDR1, ATP at Km
TrkA = TrkA (Homo sapiens (Human), UniProt P04629); assay: Kinase inhibition assay (KinaseProfiler, 33P-ATP); type: biochemical; conditions: TrkA(h), read-out: The percentage of the remaining active protein
Btk = Btk (Homo sapiens (Human), UniProt Q06187); assay: Kinase inhibition assay (KinaseProfiler, 33P-ATP); type: biochemical; conditions: for remaining activity at 10 µM: BTK(h), read-out: The percentage of the remaining active protein; for IC50: Btk, ATP at Km
Axl = Axl (Homo sapiens (Human), UniProt P30530); assay: Kinase inhibition assay (KinaseProfiler, 33P-ATP); type: biochemical; conditions: for remaining activity at 10 µM: Axl(h), read-out: The percentage of the remaining active protein
PDGFRα = PDGFRα (Homo sapiens (Human), UniProt P16234); assay: Kinase inhibition assay (KinaseProfiler, 33P-ATP); type: biochemical; conditions: for remaining activity at 10 µM: PDGFRα(h), read-out: The percentage of the remaining active protein; for IC50: PDGFRα, ATP at Km
Lyn = Lyn (Homo sapiens (Human), UniProt P07948); assay: Kinase inhibition assay (KinaseProfiler, 33P-ATP); type: biochemical; conditions: for remaining activity at 10 µM: Lyn(h), read-out: The percentage of the remaining active protein
Tie2 = Tie2 (Homo sapiens (Human), UniProt Q02763); assay: Kinase inhibition assay (KinaseProfiler, 33P-ATP); type: biochemical; conditions: Tie2 (h), read-out: The percentage of the remaining active protein
CDK7 = CDK7 (Homo sapiens (Human), UniProt P50613); assay: Kinase inhibition assay (KinaseProfiler, 33P-ATP); type: biochemical; conditions: read-out: The percentage of the remaining active protein
Fer(h) = Fer(h) (Homo sapiens (Human), UniProt P16591); assay: Kinase inhibition assay (KinaseProfiler, 33P-ATP); type: biochemical; conditions: read-out: The percentage of the remaining active protein
Fms(h) = Fms(h) (Homo sapiens (Human), UniProt P07333); assay: Kinase inhibition assay (KinaseProfiler, 33P-ATP); type: biochemical; conditions: read-out: The percentage of the remaining active protein
mTOR(h) = mTOR(h) (Homo sapiens (Human), UniProt P42345); assay: Kinase inhibition assay (KinaseProfiler, 33P-ATP); type: biochemical; conditions: read-out: The percentage of the remaining active protein
PKA(h) = PKA(h) (Homo sapiens (Human), UniProt P17612); assay: Kinase inhibition assay (KinaseProfiler, 33P-ATP); type: biochemical; conditions: read-out: The percentage of the remaining active protein
PKBα(h) = PKBα(h) (Homo sapiens (Human), UniProt P31749); assay: Kinase inhibition assay (KinaseProfiler, 33P-ATP); type: biochemical; conditions: read-out: The percentage of the remaining active protein
RAMOS = assay: Cell proliferation inhibition assay (MTT); type: cell-based; conditions: Homo sapiens, read-out: Proliferation inhibitory activity IC50
Procedure: (§1) The cells were seeded in 96-well plates with 200 μL of cell suspension per well and incubated overnight in a cell culture medium with a cell concentration of 1 2×10^4 cells/mL. The next day, the supernatant was discarded (the suspension cell was centrifuged before it) and the cells were treated with gradient concentrations of the test compound, respectively. […] After 72 hours, add 20 μL of MTT reagent at a concentration of 5 mg/mL per well. After incubation for 2-4 h, the supernatant was discarded and 150 μL of DMSO was added to each well. […] Relative cell proliferation inhibition rate=([MUT]-[MUT])×100%/[MUT]. The experiment was repeated at least 3 times. Experimental data were expressed as mean, data statistics using t test, P<0.05 for the difference was statistically significant.

MV4-11 = assay: Cell proliferation inhibition assay (MTT); type: cell-based; conditions: Homo sapiens, read-out: Proliferation inhibitory activity IC50
Procedure: as §1

A549 = assay: Cell proliferation inhibition assay (MTT); type: cell-based; conditions: Homo sapiens, read-out: Proliferation inhibitory activity IC50
Procedure: as §1

MDA-MB-468 = assay: Cell proliferation inhibition assay (MTT); type: cell-based; conditions: Homo sapiens, read-out: Proliferation inhibitory activity IC50
Procedure: as §1

BT474 = assay: Cell proliferation inhibition assay (MTT); type: cell-based; conditions: Homo sapiens, read-out: Proliferation inhibitory activity IC50
Procedure: as §1

HCT116 = assay: Cell proliferation inhibition assay (MTT); type: cell-based; conditions: Homo sapiens, read-out: Proliferation inhibitory activity IC50
Procedure: as §1

HT29 = assay: Cell proliferation inhibition assay (MTT); type: cell-based; conditions: Homo sapiens, read-out: Proliferation inhibitory activity IC50
Procedure: as §1

A375 = assay: Cell proliferation inhibition assay (MTT); type: cell-based; conditions: Homo sapiens, read-out: Proliferation inhibitory activity IC50
Procedure: as §1

c-Src(1-530) = c-Src(1-530) (Homo sapiens (Human), UniProt P12931); assay: Kinase inhibition assay (KinaseProfiler, 33P-ATP); conditions: for IC50: c-Src(1-530), ATP at Km; for remaining activity at 10 µM: read-out: The percentage of the remaining active protein
B-Raf(V600E) = B-Raf(V600E) (Homo sapiens (Human), UniProt P15056, V600E); assay: Kinase inhibition assay (KinaseProfiler, 33P-ATP); conditions: ATP at Km
B-Raf = B-Raf (Homo sapiens (Human), UniProt P15056); assay: Kinase inhibition assay (KinaseProfiler, 33P-ATP); conditions: for IC50: B-Raf, ATP at Km; for remaining activity at 10 µM: read-out: The percentage of the remaining active protein
JAK3(h) = JAK3(h) (Homo sapiens (Human), UniProt P52333); assay: Kinase inhibition assay (KinaseProfiler, 33P-ATP); type: biochemical; conditions: read-out: The percentage of the remaining active protein

Chain of CDK7 (P50613 whole entry): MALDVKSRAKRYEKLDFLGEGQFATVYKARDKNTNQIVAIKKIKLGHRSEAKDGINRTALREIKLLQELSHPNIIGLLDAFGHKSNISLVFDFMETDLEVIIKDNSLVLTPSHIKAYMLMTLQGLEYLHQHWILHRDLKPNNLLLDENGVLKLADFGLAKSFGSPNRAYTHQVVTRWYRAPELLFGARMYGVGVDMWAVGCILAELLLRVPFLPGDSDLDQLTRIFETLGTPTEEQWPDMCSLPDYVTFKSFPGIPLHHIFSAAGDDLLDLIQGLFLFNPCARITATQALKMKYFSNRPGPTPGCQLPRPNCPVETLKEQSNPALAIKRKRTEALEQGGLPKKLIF
Chain of CDK7 (P51946 whole entry partner): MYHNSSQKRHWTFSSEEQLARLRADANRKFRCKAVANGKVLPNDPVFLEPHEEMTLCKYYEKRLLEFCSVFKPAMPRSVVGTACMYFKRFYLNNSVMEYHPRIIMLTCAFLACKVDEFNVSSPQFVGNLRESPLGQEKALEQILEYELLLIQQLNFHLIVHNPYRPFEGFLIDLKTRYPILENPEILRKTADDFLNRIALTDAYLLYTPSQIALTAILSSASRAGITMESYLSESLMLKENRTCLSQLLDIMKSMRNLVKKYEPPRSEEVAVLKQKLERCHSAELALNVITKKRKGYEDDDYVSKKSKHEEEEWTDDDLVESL
Chain of CDK7 (P51948 whole entry partner): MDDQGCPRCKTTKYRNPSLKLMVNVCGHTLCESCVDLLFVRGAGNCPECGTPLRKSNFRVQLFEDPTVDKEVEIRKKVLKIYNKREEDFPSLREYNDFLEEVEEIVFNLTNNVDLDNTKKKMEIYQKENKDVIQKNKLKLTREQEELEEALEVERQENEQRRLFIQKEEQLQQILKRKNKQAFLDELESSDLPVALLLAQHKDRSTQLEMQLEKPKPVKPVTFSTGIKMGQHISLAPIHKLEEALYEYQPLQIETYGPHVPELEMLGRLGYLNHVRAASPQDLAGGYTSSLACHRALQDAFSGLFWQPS
Chain of PDGFRα (P16234 24-1089): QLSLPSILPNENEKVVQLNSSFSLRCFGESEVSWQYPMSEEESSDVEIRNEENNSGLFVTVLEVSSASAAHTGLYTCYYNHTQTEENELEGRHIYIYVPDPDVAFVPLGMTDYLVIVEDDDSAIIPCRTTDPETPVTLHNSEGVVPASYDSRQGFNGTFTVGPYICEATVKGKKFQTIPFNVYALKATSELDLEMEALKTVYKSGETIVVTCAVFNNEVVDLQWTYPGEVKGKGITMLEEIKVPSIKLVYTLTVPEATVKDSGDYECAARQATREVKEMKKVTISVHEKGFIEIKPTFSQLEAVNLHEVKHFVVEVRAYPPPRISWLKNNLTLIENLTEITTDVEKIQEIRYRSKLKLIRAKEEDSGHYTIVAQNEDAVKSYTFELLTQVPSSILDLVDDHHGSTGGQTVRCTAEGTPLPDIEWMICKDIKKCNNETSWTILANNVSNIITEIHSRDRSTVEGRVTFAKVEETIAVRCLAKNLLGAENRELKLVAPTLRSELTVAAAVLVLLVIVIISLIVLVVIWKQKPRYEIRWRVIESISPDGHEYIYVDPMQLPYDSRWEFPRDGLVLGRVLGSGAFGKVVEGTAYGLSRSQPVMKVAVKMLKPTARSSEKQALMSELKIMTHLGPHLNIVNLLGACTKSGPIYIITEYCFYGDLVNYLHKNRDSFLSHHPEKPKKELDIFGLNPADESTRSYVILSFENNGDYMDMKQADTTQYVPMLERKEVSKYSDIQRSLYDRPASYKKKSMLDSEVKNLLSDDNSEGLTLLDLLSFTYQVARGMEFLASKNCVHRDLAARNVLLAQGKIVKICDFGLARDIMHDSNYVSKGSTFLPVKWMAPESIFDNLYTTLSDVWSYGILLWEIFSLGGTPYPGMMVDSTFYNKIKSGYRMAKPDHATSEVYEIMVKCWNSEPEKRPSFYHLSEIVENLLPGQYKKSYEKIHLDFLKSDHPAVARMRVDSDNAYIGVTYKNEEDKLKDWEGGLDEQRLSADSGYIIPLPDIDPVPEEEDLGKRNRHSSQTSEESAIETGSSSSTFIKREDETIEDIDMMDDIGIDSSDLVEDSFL
Chain of KDR (P35968 20-1356): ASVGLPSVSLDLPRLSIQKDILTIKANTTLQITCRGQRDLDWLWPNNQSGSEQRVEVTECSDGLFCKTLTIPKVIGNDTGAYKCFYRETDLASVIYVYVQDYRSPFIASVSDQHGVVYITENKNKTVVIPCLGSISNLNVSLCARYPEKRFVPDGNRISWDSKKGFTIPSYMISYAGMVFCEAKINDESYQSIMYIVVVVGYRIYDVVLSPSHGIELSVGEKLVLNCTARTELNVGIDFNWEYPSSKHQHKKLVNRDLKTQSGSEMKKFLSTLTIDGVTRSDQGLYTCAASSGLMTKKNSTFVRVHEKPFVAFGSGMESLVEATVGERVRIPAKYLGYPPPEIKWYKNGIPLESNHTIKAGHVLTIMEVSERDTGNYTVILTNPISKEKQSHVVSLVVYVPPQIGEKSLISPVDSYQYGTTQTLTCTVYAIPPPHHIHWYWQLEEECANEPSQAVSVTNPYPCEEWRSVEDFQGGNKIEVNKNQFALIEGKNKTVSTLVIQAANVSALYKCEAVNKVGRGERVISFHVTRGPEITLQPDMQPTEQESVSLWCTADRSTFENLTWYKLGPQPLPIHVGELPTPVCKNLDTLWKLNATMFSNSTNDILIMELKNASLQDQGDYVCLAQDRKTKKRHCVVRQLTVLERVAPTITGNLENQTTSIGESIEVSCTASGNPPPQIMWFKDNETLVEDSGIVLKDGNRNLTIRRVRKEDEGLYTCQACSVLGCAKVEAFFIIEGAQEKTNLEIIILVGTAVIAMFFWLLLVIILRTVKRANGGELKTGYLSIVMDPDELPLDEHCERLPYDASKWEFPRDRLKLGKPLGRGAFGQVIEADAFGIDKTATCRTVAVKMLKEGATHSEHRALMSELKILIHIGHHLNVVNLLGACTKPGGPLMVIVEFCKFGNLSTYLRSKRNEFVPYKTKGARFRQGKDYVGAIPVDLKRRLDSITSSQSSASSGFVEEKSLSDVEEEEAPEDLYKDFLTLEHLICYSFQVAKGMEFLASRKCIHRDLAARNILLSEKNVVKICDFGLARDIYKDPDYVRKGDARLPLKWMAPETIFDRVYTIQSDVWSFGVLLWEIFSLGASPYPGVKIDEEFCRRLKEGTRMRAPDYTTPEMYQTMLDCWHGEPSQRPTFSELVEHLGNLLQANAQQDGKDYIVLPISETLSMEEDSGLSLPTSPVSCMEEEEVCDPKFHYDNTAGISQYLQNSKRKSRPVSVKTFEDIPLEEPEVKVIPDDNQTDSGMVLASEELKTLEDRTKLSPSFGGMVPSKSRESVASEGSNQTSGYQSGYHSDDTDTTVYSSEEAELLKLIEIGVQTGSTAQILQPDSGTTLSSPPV
Chain of PKBα(h) (P31749 whole entry): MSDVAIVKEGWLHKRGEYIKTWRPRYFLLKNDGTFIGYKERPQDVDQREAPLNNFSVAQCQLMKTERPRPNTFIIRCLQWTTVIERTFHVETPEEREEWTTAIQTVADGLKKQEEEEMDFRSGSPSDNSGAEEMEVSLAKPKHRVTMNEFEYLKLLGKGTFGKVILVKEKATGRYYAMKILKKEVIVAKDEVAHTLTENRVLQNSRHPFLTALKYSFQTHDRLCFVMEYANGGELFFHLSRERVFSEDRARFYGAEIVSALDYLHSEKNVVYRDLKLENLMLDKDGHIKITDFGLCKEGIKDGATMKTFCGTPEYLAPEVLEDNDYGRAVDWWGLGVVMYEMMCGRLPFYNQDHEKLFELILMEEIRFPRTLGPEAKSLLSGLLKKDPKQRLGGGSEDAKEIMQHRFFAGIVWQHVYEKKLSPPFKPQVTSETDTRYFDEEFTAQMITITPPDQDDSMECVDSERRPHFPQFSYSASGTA
Chain of c-Src(1-530) (P12931 whole entry, looked up): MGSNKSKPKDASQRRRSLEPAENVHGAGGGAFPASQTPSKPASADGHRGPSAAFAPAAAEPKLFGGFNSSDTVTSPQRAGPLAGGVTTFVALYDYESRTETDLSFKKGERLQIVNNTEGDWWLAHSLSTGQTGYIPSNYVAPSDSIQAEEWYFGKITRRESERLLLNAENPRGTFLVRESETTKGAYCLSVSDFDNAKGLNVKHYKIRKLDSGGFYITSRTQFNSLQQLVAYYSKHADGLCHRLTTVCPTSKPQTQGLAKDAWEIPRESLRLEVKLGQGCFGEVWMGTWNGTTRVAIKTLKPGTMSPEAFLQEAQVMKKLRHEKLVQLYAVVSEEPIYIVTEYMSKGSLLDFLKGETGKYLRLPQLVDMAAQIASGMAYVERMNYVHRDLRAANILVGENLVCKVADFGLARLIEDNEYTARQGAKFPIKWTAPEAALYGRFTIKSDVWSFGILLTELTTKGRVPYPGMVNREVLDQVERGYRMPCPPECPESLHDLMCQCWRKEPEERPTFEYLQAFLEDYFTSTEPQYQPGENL
Chain of c-Src(T341M) (P12931 whole entry T341M, looked up): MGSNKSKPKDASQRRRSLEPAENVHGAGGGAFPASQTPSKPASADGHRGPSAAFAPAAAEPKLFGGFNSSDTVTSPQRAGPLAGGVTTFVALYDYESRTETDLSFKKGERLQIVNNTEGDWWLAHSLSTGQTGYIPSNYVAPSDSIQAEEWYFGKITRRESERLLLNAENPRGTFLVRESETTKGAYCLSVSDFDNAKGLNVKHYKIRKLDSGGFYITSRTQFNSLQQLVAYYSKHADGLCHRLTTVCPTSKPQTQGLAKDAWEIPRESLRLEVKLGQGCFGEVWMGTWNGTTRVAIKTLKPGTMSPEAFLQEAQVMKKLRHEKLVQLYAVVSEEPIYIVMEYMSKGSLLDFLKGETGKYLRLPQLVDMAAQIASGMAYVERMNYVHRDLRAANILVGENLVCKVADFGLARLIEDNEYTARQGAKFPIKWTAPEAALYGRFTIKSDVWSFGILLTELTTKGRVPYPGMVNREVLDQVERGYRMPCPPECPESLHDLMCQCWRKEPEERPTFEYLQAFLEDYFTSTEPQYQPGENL

Compound: CCn1nc(C#Cc2cc(C(=O)Nc3ccc(CN4CCN(C)CC4)c(C(F)(F)F)c3)ccc2C)c2c(N)ncnc21 [Compound 3]
- IC50 (c-Src(T341M)): 30 nM
- IC50 (Blk): 19 nM
- remaining activity at 10 µM (KDR; compound at 10 μM): 2%
- IC50 (KDR): 17 nM
- IC50 (FGFR1; FGFR1, ATP at Km): 3 nM
- remaining activity at 10 µM (EphB2; compound at 10 μM): 0%
- IC50 (DDR1): 9 nM
- remaining activity at 10 µM (TrkA; compound at 10 μM): -2%
- remaining activity at 10 µM (Btk; compound at 10 μM): -3%
- IC50 (Btk): 67 nM
- remaining activity at 10 µM (Axl; compound at 10 μM): -4%
- IC50 (Axl; Axl, ATP at Km): 578 nM
- remaining activity at 10 µM (PDGFRα; compound at 10 μM): 5%
- IC50 (PDGFRα): 890 nM
- remaining activity at 10 µM (Lyn; compound at 10 μM): 0%
- remaining activity at 10 µM (Tie2; compound at 10 μM): 3%
- remaining activity at 10 µM (CDK7; CDK7, compound at 10 μM): 70%
- remaining activity at 10 µM (Fer(h); compound at 10 μM): 23%
- remaining activity at 10 µM (Fms(h); compound at 10 μM): 0%
- remaining activity at 10 µM (mTOR(h); compound at 10 μM): 96%
- remaining activity at 10 µM (PKA(h); compound at 10 μM): 17%
- remaining activity at 10 µM (PKBα(h); compound at 10 μM): 73%
- IC50 (RAMOS; Ramos, 72 h): ~10000 nM
- IC50 (MV4-11; MV4-11, 72 h): 20 nM
- IC50 (A549; A549, 72 h): 199 nM
- IC50 (MDA-MB-468; MDA-MB-468, 72 h): 4480 nM
- IC50 (BT474; BT-474, 72 h): > 10000 nM
- IC50 (HCT116; HCT-116, 72 h): 178 nM
- IC50 (HT29; HT-29, 72 h): 166 nM
- IC50 (A375; A-375, 72 h): 20.9 nM
- IC50 (c-Src(1-530)): < 1 nM
- IC50 (B-Raf(V600E)): 15 nM
- IC50 (B-Raf): 92 nM
- remaining activity at 10 µM (B-Raf): 5%

Compound: Cc1ccc(NC(=O)c2cccc(C(F)(F)F)c2)cc1C#Cc1nn(C2CCN(C)CC2)c2ncnc(N)c12 [Compound 31]
- IC50 (c-Src(T341M)): 3730 nM
- remaining activity at 10 µM (Blk; compound at 10 μM): -1%
- IC50 (Blk): 12 nM
- remaining activity at 10 µM (KDR; compound at 10 μM): 3%
- IC50 (KDR): 12 nM
- remaining activity at 10 µM (FGFR1; compound at 10 μM): 0%
- remaining activity at 10 µM (EphB2; compound at 10 μM): -1%
- IC50 (EphB2): 10 nM
- IC50 (DDR1): 4 nM
- remaining activity at 10 µM (TrkA; compound at 10 μM): 14%
- remaining activity at 10 µM (Btk; compound at 10 μM): -3%
- IC50 (Btk): 127 nM
- remaining activity at 10 µM (Axl; compound at 10 μM): 15%
- remaining activity at 10 µM (PDGFRα; compound at 10 μM): 3%
- IC50 (PDGFRα): 396 nM
- remaining activity at 10 µM (Lyn; compound at 10 μM): 0%
- remaining activity at 10 µM (Tie2; compound at 10 μM): 3%
- remaining activity at 10 µM (CDK7; CDK7, compound at 10 μM): 70%
- remaining activity at 10 µM (Fer(h); compound at 10 μM): 92%
- remaining activity at 10 µM (Fms(h); compound at 10 μM): 1%
- remaining activity at 10 µM (JAK3(h); compound at 10 μM): 29%
- remaining activity at 10 µM (mTOR(h); compound at 10 μM): 81%
- remaining activity at 10 µM (PKA(h); compound at 10 μM): 58%
- remaining activity at 10 µM (PKBα(h); compound at 10 μM): 56%
- IC50 (A549; A549, MTT, 72 hours): 1420 nM
- IC50 (MDA-MB-468; MDA-MB-468, MTT, 72 hours): 3220 nM
- IC50 (BT474; BT-474, BT474, MTT, 72 hours): > 10000 nM
- IC50 (HCT116; HCT-116, HCT116, MTT, 72 hours): 230 nM
- IC50 (HT29; HT-29, HT29, MTT, 72 hours): 350 nM
- IC50 (A375; A-375, A375, MTT, 72 hours): 26.6 nM
- IC50 (c-Src(1-530)): 2 nM
- remaining activity at 10 µM (c-Src(1-530)): 0%
- IC50 (B-Raf(V600E)): 5 nM
- IC50 (B-Raf): 22 nM
- remaining activity at 10 µM (B-Raf): 1%

Compound: Cc1ccc(NC(=O)c2ccc(C)c(C(F)(F)F)c2)cc1C#Cc1nn([C@H]2CC[C@H](O)CC2)c2ncnc(N)c12 [Compound 93]
- remaining activity at 10 µM (c-Src(T341M); Src(T341M)(h), 10 μM, read-out: The percentage of the remaining active protein): 20%
- remaining activity at 10 µM (Blk; 10 μM): 0%
- remaining activity at 10 µM (KDR; 10 μM): 2%
- remaining activity at 10 µM (FGFR1; 10 μM): 1%
- remaining activity at 10 µM (EphB2; 10 μM): -1%
- IC50 (EphB2): 33 nM
- remaining activity at 10 µM (DDR1; DDR1(h), 10 μM, read-out: The percentage of the remaining active protein): -2%
- IC50 (DDR1): 15 nM
- remaining activity at 10 µM (TrkA; 10 μM): 72%
- remaining activity at 10 µM (Btk; 10 μM): 10%
- remaining activity at 10 µM (Axl; 10 μM): 56%
- remaining activity at 10 µM (PDGFRα; 10 μM): 60%
- remaining activity at 10 µM (Lyn; 10 μM): 0%
- IC50 (Lyn; Lyn, ATP at Km): 4 nM
- remaining activity at 10 µM (Tie2; 10 μM): 1%
- remaining activity at 10 µM (CDK7; CDK7/cyclinH/MAT1(h), 10 μM): 103%
- remaining activity at 10 µM (Fer(h); 10 μM): 67%
- remaining activity at 10 µM (Fms(h); 10 μM): 4%
- remaining activity at 10 µM (JAK3(h); 10 μM): 7%
- remaining activity at 10 µM (mTOR(h); 10 μM): 101%
- remaining activity at 10 µM (PKA(h); 10 μM): 60%
- remaining activity at 10 µM (PKBα(h); 10 μM): 101%
- IC50 (RAMOS; RAMOS, MTT, 72 hours): ~10000 nM
- IC50 (MV4-11; MV4-11, MTT, 72 hours): 138 nM
- IC50 (A549; A549, MTT, 72 hours): > 10000 nM
- IC50 (BT474; BT-474, BT474, MTT, 72 hours): > 10000 nM
- IC50 (HT29; HT-29, HT29, MTT, 72 hours): 230 nM
- IC50 (A375; A-375, A375, MTT, 72 hours): ~30 nM
- remaining activity at 10 µM (c-Src(1-530)): 0%
- remaining activity at 10 µM (B-Raf): 7%
